Measurements published in patent US20250230193A1, “CYCLIC COMPOUND HAVING SELECTIVE KRAS INHIBITORY EFFECT ON HRAS AND NRAS” (CHUGAI SEIYAKU KABUSHIKI KAISHA, priority 2022, published 2025).
Where a SMILES comes first, the peptide text is derived from it. Bridges are numbered along the chain shown (N, C = ends). [ ]: non-standard residue; d: D form. The star is where a group is joined. hPhe(3-Cl-4-CF3) = N[C@@H](CCc1ccc(C(F)(F)F)c(Cl)c1)C(=O)O; NPrPhe(4-CF3) = CCCN[C@@H](Cc1ccc(C(F)(F)F)cc1)C(=O)O; NMeGly(cPent) = CN[C@H](C(=O)O)C1CCCC1; NMeD = CN[C@@H](CC(=O)O)C(=O)O; NMeL = CN[C@@H](CC(C)C)C(=O)O; Pip = O=C(O)[C@@H]1CCCCN1; Morpholide = C1CN(*)CCO1; Ac5c = NC1(C(=O)O)CCCC1; Sar = CNCC(=O)O

Assays:
[1] = target: GDP-bound HRAS wild-type protein (Homo sapiens, UniProt P01112); assay: Binding to HRAS by surface plasmon resonance (SPR), Single Cycle Kinetics; settings: for HRAS/KRAS (ratio of KD value with respect to GDP-bound HRAS wild-type protein to KD value with respect to KRAS): class symbols
Sequence of GDP-bound HRAS wild-type protein (P01112 whole entry): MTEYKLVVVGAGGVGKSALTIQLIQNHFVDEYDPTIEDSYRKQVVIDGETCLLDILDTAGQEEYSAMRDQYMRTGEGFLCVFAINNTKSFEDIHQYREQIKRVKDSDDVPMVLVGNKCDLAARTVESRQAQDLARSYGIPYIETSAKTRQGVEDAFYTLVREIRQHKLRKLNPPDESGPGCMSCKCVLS

[2] = target: GDP-bound NRAS wild-type protein (Homo sapiens, UniProt P01111); assay: Binding to NRAS by surface plasmon resonance (SPR), Single Cycle Kinetics; settings: for NRAS/KRAS (ratio of KD value with respect to GDP-bound NRAS wild-type protein to KD value with respect to KRAS): class symbols
Sequence of GDP-bound NRAS wild-type protein (P01111 whole entry): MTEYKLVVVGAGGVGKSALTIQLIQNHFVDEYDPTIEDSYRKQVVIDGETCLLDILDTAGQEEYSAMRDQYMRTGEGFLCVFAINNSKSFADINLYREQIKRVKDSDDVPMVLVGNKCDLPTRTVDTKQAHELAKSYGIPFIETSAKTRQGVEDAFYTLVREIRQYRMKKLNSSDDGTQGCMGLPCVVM

[3] = GDP-bound HRAS wild-type vs GDP-bound KRAS wild-type, SPR
[4] = GDP-bound NRAS wild-type vs GDP-bound KRAS wild-type, SPR

Row | SMILES | HRAS/KRAS (ratio of KD value for HRAS to KD value for KRAS) [1, 3] | NRAS/KRAS (ratio of KD value for NRAS to KD value for KRAS) [2, 4] | other results
1 | CCCOC[C@H]1C(=O)N[C@@H]([C@@H](C)CC)C(=O)N(C)CC(=O)N(C)[C@H]2C/C=C\CCN(C2=O)[C@@H](Cc2ccc(C(F)(F)F)cc2)C(=O)N(C)CC(=O)N[C@@H](CCc2cc(F)c(C(F)(F)F)c(F)c2)C(=O)N2CC(F)(F)C[C@H]2C(=O)NC2(CC(C)(C)C2)C(=O)N(C)[C@@H](C2CCCC2)C(=O)N(C)[C@H](C(=O)N(C)C)CC(=O)N1C [PP1718] | A (a compound having 10 or more and less than 20 is denoted as A) | AA (a compound having 20 or more is denoted as AA) | –
2 | CCO[C@@H]1C[C@H]2C(=O)NC3(CCC3)C(=O)N(C)[C@@H](C3CCCC3)C(=O)N(C)[C@H](C3CCC3)CC(=O)N(C)[C@@H](CC3CC3)C(=O)N[C@@H]([C@@H](C)CC)C(=O)N(C)CC(=O)N(C)[C@H]3C/C=C\CCN(C3=O)[C@@H](Cc3ccc(C(F)(F)F)cc3)C(=O)N(C)CC(=O)N[C@@H](CCc3cc(F)c(C(F)(F)F)c(F)c3)C(=O)N2C1 [PP1637] | A (a compound having 10 or more and less than 20 is denoted as A) | A (a compound having 10 or more and less than 20 is denoted as A) | –
3 | CCO[C@@H]1C[C@H]2C(=O)NC3(CC(C)(C)C3)C(=O)N(C)[C@@H](C3CCCC3)C(=O)N(C)[C@H](C(=O)N(C)CC)CC(=O)N(C)[C@@H](CC)C(=O)N[C@@H]([C@@H](C)CC)C(=O)N(C)CC(=O)N(C)[C@H]3C/C=C\CCN(C3=O)[C@@H](Cc3ccc(C(F)(F)F)cc3)C(=O)N(C)CC(=O)N[C@@H](CCc3ccc(Cl)c(Cl)c3)C(=O)N2C1 [PP2822] | – | – | HRAS/KRAS (ratio of KD value with respect to GDP-bound HRAS wild-type protein to KD value with respect to KRAS) ([1]; KD ratio HRAS/KRAS): A (a compound having 10 or more and less than 20 is denoted as A); NRAS/KRAS (ratio of KD value with respect to GDP-bound NRAS wild-type protein to KD value with respect to KRAS) ([2]; KD ratio NRAS/KRAS): A (a compound having 10 or more and less than 20 is denoted as A)
4 | CCCN(C)C(=O)[C@@H]1CC(=O)N(C)[C@@H](COCC)C(=O)N[C@@H]([C@@H](C)CC)C(=O)N(C)CC(=O)N(C)[C@H]2C/C=C\CCN(C2=O)[C@@H](Cc2ccc(C(F)(F)F)cc2)C(=O)N(C)CC(=O)N[C@@H](CCc2ccc(C(F)(F)F)c(OC)c2)C(=O)N2C[C@@H](C)C[C@H]2C(=O)NC2(CC(C)(C)C2)C(=O)N(C)[C@@H](C2CCCC2)C(=O)N1C [PP1991] | A (a compound having 10 or more and less than 20 is denoted as A) | A (a compound having 10 or more and less than 20 is denoted as A) | –
5 | CCCN1C(=O)CN(C)C(=O)CN(C)C(=O)[C@H]([C@@H](C)CC)NC(=O)[C@H](CC(C)C)N(C)C(=O)C[C@@H](C(=O)N2CCOCC2)N(C)C(=O)[C@H](C2CCCC2)N(C)C(=O)C2(CCCC2)NC(=O)[C@@H]2CCCCN2C(=O)[C@H](CCc2ccc(C(F)(F)F)c(Cl)c2)NC(=O)CN(C)C(=O)[C@@H]1Cc1ccc(C(F)(F)F)cc1 [PP0263] ([NMeL]I[Sar][Sar][NPrPhe(4-CF3)][Sar][hPhe(3-Cl-4-CF3)][Pip][Ac5c][NMeGly(cPent)][NMeD]-Morpholide; lactam N-11) | – | – | HRAS/KRAS (ratio of KD for GDP-bound HRAS wild-type to KD for KRAS) ([1]; KD ratio HRAS/KRAS, SPR): C (A compound having a KD ratio of 0.1 or more and less than 3 is denoted as C); NRAS/KRAS (ratio of KD for GDP-bound NRAS wild-type to KD for KRAS) ([2]; KD ratio NRAS/KRAS, SPR): B (a compound having 3 or more and less than 10 is denoted as B)
6 | CCCN(C)C(=O)[C@@H]1CC(=O)N(C)[C@@H](CC2CC2)C(=O)N[C@@H]([C@@H](C)CC)C(=O)N(C)CC(=O)N(C)[C@H]2C/C=C\CCN(C2=O)[C@@H](Cc2ccc(C(F)(F)F)cc2)C(=O)N(C)CC(=O)N[C@@H](CCc2cc(F)c(C(F)(F)F)c(F)c2)C(=O)N2C[C@H](OCC)C[C@H]2C(=O)NC2(CC(F)(F)C2)C(=O)N(C)[C@@H](C2CCCC2)C(=O)N1C [PP1739] | AA (a compound having 20 or more is denoted as AA) | AA (a compound having 20 or more is denoted as AA) | –
7 | CCC[C@H]1C(=O)N[C@@H]([C@@H](C)CC)C(=O)N(C2CC2)CC(=O)N(C)[C@H]2C/C=C\CCN(C2=O)[C@@H](Cc2ccc(C)cc2)C(=O)N(C)CC(=O)N[C@@H](CCc2ccc(C(F)(F)F)c(OC)c2)C(=O)N2C[C@H](OCC)C[C@H]2C(=O)NC2(CC(C)(C)C2)C(=O)N(C)[C@@H](CC2CC2)C(=O)N(C)[C@H](C(=O)N(C)C)CC(=O)N1C [PP2803] | – | – | HRAS/KRAS (ratio of KD value with respect to GDP-bound HRAS wild-type protein to KD value with respect to KRAS) ([1]; KD ratio HRAS/KRAS): A (a compound having 10 or more and less than 20 is denoted as A); NRAS/KRAS (ratio of KD value with respect to GDP-bound NRAS wild-type protein to KD value with respect to KRAS) ([2]; KD ratio NRAS/KRAS): A (a compound having 10 or more and less than 20 is denoted as A)
8 | CC[C@H](C)[C@@H]1NC(=O)[C@H](COC)N(C)C(=O)C[C@@H](C(=O)N(C)C)N(C)C(=O)[C@H](C2CCCC2)N(C)C(=O)C2(CC(C)(C)C2)NC(=O)[C@@H]2C[C@H](C)CN2C(=O)[C@H](CCc2ccc(C(F)(F)F)c(OC)c2)NC(=O)CN(C)C(=O)[C@H](Cc2ccc(C)cc2)N2CC/C=C\C[C@@H](C2=O)N(C)C(=O)[C@@H]2C[C@H](C)CN2C1=O [PP2386] | – | – | HRAS/KRAS (ratio of KD value with respect to HRAS to KD value with respect to KRAS) ([1]; SPR, GDP-bound HRAS wild-type vs GDP-bound KRAS wild-type): B (a compound having 3 or more and less than 10 is denoted as B); NRAS/KRAS (ratio of KD value with respect to NRAS to KD value with respect to KRAS) ([2]; SPR, GDP-bound NRAS wild-type vs GDP-bound KRAS wild-type): A (a compound having 10 or more and less than 20 is denoted as A)
